Key:
[1] = tested on: MB49 mouse bladder cancer; experiment: MB49 mouse bladder cancer model, Treg and Teff cells by flow cytometry; type: in vivo; conditions: C57BL/6 mice
Description: Evaluation of Treg and Teff cell numbers was performed by flow cytometry. From a tumour sample (resected piece or biopsy), tumour cells and TILs are dispersed into single cell suspension. Cells are then washed with PBS and stained by antibodies. Samples were stained with antibodies to identify T-cell subpopulations; CD3-BV421 (Biolegend 100228), CD8-FITC (Biolegend 100706), CD4-PE (Biolegend 116005), CD25-PerCP Cy5.5 (Biolegend 101912, clone 3C7), for 15 minutes at room temperature, followed by addition of erythrocyte lysis buffer (cat no. 349202, BD BioSciences, Franklin Lakes, N.J., USA) for 8 minutes. Cells were permeabilized with FoxP3 fix/Perm (cat no. 421401, Biolegend San Diego, Calif., USA), washed with FoxP3 Perm buffer (Cat no. 421402, Biolegend) and stained with an Alexa Fluor® 647 labelled FoxP3 antibody (Cat no. 320013, Biolegend) according to the manufacturer's instructions. The cells were washed twice in PBS with 1% BSA and analyzed on a FACSCanto II (BD Biosciences). Data analysis was performed using FlowJo software (TreeStar, Ashland, Oreg., USA). For intracellular staining of cytokines, inclusion of transport inhibitors e.g. Monensin or Brefeldin A.
The murine bladder urothelial carcinoma cell line Mouse Bladder (MB)-49 is a C57BL/6-derived cell line cultured at 37 C and 5% CO2 in DMEM+GlutaMax supplemented with 10% FBS, 0.1 mM sodium pyruvate, 100 U/ml Penicillin-Streptomycin. For determining the effects of MALT1 inhibitor on the presence of T-effector and T-regulatory cells in vivo, 3×10^5 MB49 cells were injected s.c. on the right flank of female C57BL/6 mice. […] As reference 200 μg of anti-CD25 antibody (clone PC61) in 100 μL PBS was administered i.v. on day 8 and 11. The levels of Treg and Teff cells were analyzed by flow cytometry in the tumour (T) and in tumour-draining lymph nodes (TDLN) on day 12.

[2] = tested on: CMV-specific (NLV+) CD8+ Teff cells expressing IFNγ or TNFα; experiment: Human whole blood stimulated with (MTTE)3-CMV vaccine; type: cell-based; conditions: 4 μM with 120 nM (MTTE)3-CMV vaccine, 6 hours, three donors
Description: Freshly drawn whole blood from healthy volunteers (2 mL) in a tube was incubated under rotation at 37° C. for 6 hours. […]. After 2 hours Brefeldin-A was added to allow intra-cellular analysis of cytokines (IFNγ and TNFα) by flow-cytometry. Antigen-specific CD8+ T-cells were identified by fluorescence-conjugated tetrameric complexes of HLA-A2 molecules loaded with the NLV peptide epitope ([…]) of CMV pp65.

[3] = Follow-up 5 day cell growth assay WSU-NHL (CC50); type: cell-based; conditions: human, WSU-NHL cells
[4] = tested on: panel of human cancer cell lines; experiment: Human cancer cell line panel (Oncolead), GI50, 72 hours; type: cell-based
[5] = tested on: IL-2 expression in Jurkat (E6-1) cells; experiment: IL-2 expression assay (down-stream MALT1 activity, Jurkat E6-1); type: cell-based; conditions: Homo sapiens; Jurkat E6-1, PMA/Ionomycin stimulation, 24 hours
Description: Down-stream MALT1 activity was measured by PMA/lonomycin-induced expression of IL-2 in Jurkat (E6-1) cells. Compounds were distributed in a 96 well plate, 8-point concentration series, 1:3 dilution. Jurkat clone E6-1, 4×10^4 cells/well, were added, and stimulated by PMA/lonomycin (1:500 dilution) for 24 hours at 37° C. Measurement was performed using a MesoScale Sector S600 with the Human IL-2 Tissue Culture kit according to the manufacturers recommendation.

[6] = tested on: CMV-specific (NLV+) CD8+ Teff cells expressing IFNγ; experiment: Human whole blood loop assay with CMV lysate; type: cell-based; conditions: 4 μM, 6 hours, alone and in combination with CMV lysate 1 μg/ml
Description: Each blood loop contained 2 mL of freshly taken human whole blood from HLA-A2+ and CMV+ donors.
Freshly drawn whole blood from healthy volunteers (2 mL) in a tube was incubated under rotation at 37° C. for 6 hours. […] After 2 hours Brefeldin-A was added to allow intra-cellular analysis of cytokines (IFNγ and TNFα). Antigen-specific CD8+ T-cells were identified by fluorescence-conjugated tetrameric complexes of HLA-A2 molecules loaded with the NLV peptide epitope ([…]) of CMV pp65,

[7] = p.o. once daily day 8-11, two doses, analysed day 12

SMILES: CO[C@@H](C)c1c(NC(=O)Nc2cnc(-n3nccn3)c(Cl)c2)cnc2cc(Cl)nn12 [Example 2, (S)-1-(5-chloro-6-(2H-1,2,3-triazol-2-yl)pyridin-3-yl)-3-(2-chloro-7-(1-methoxyethyl)pyrazolo[1,5-a]pyrimidin-6-yl)urea]
- amount of CD8/CD25 double positive cells (Teff) in TDLN ([1]; p.o. once daily day 8-11, analysed day 12): not reduced
- percentage of FOXP3 positive cells (Treg) out of CD3/CD4 double positive cells in tumour [1, 7]: reduced, in a dose-dependent manner
- percentage of FOXP3 positive cells (Treg) out of CD3/CD4 double positive cells in tumour-draining lymph nodes [1, 7]: reduced, in a dose-dependent manner
- percentage of activated antigen-specific IFNγ+ and TNFα+ CD8+ T cells [2]: increase
- CC50 at 5 days [3]: 77 µM
- antiproliferative effect on the majority of cell lines tested ([4]; 81 solid and 12 hematological cancer cell lines, 50 μM to 0.05 nM): essentially no antiproliferative effect
- GI50 ([4]; Homo sapiens, WSU-NHL cell line, not confirmed in follow-up assay): < 1000 nM
- IC50 [5]: 0.01 µM
- activated antigen-specific IFNγ+CD8+ T cells [6]: increase

— US20200009135A1, “THERAPEUTIC APPLICATIONS OF MALT1 INHIBITORS” (MEDIVIR AB, priority 2017, published 2020)
